Assay results reported in patent publication US10202375B2, “N-pyridinyl acetamide derivatives as Wnt signalling pathway inhibitors” (Redx Pharma PLC, priority 2014, dated 2019).

system: Wnt pathway (L-Wnt cells producing murine Wnt-3a; Leading Light Wnt Reporter Cells); experiment: Dual-Cell β-Catenin Reporter Assay; format: cell-based, Mouse; conditions: Mus musculus, luciferase signal reduced to 50% of DMSO control; category symbols
Description: Dual-Cell β-Catenin Reporter Assay
Mouse L cells transfected to constitutively produce biologically active murine Wnt-3a, referred to as L-Wnt cells, were purchased from the American Type Culture Collection, ATCC, Manassas, Va. (ATCC). These cells were cultured in DMEM supplemented with 10% FCS (Gibco/Invitrogen, Carlsbad, Calif.), 1% geneticin and 1% sodium pyruvate (Sigma) at 37° C. with 5% CO2. The cells were seeded into 96 well plates and treated with serial dilutions of compound diluted to 0.1% DMSO concentration. After 24 hours, cell supernatants were transferred to a 96 well plate previously seeded with Leading Light® Wnt Reporter Cells, stably transfected with a luciferase gene under control of Wnt pathway response elements. After a further 24 hours, cells are treated with One-glo luciferase assay system (Promega, Madison, Wis.) and the luminescent signal read by envision.

First: Cc1cc(-c2ccnc3c2ccn3CC(=O)Nc2ccc(-c3cnccn3)nc2)ccn1 [ID No. 17, 2-[4-(2-methyl-4-pyridyl)pyrrolo[2,3-b]pyridin-1-yl]-N-(6-pyrazin-2-yl-3-pyridyl)acetamide]
Second: Cc1cc(-c2ncnc3c2ccn3CC(=O)Nc2ccc(-c3cnccn3)nc2)ccn1 [compound 16, 2-[4-(2-methyl-4-pyridyl)pyrrolo[2,3-d]pyrimidin-7-yl]-N-(6-pyrazin-2-yl-3-pyridyl)acetamide]
The IC50 of the first is lower: < 1 nM for the first, > 5 nM for the second.

Cc1cc(-c2nc(N)nc3c2ccn3CC(=O)Nc2ccc(-c3cnccn3)cn2)ccn1 [compound 8, 2-[2-amino-4-(2-methyl-4-pyridyl)pyrrolo[2,3-d]pyrimidin-7-yl]-N-(5-pyrazin-2-yl-2-pyridyl)acetamide] and Cc1cc(-c2nc(Cl)nc3c2ccn3CC(=O)Nc2ccc(-c3cnccn3)cn2)ccn1 [compound 12, 2-[2-chloro-4-(2-methyl-4-pyridyl)pyrrolo[2,3-d]pyrimidin-7-yl]-N-(5-pyrazin-2-yl-2-pyridyl)acetamide] cannot be ordered by IC50: < 1 nM for the first, < 1 nM for the second.

Cc1cc(-c2c(F)cnc3c2ccn3CC(=O)Nc2ccc(-c3cnccn3)cn2)ccn1 [ID No. 2, 2-[5-fluoro-4-(2-methyl-4-pyridyl)pyrrolo[2,3-b]pyridin-1-yl]-N-(5-pyrazin-2-yl-2-pyridyl)acetamide] and Cc1cc(-c2cncc3c2ccn3CC(=O)Nc2ccc(-c3cnccn3)cn2)ccn1 [compound 24, 2-[4-(2-methyl-4-pyridyl)pyrrolo[2,3-c]pyridin-1-yl]-N-(5-pyrazin-2-yl-2-pyridyl)acetamide] cannot be ordered by IC50: < 1 nM for the first, < 1 nM for the second.

First: Cc1cc(-c2ccnc3c2cnn3CC(=O)Nc2ccc(-c3cnccn3)cn2)ccn1 [compound 25, 2-[4-(2-methyl-4-pyridyl)pyrazolo[3,4-b]pyridin-1-yl]-N-(5-pyrazin-2-yl-2-pyridyl)acetamide]
Second: Cc1cc(-c2ncnc3c2cnn3CC(=O)Nc2ccc(-c3cnccn3)cn2)ccn1 [ID No. 22, 2-[4-(2-methyl-4-pyridyl)pyrazolo[3,4-d]pyrimidin-1-yl]-N-(5-pyrazin-2-yl-2-pyridyl)acetamide]
The IC50 of the first is lower: < 1 nM for the first, 1 to 5 nM for the second.

First: Cn1nccc1-c1nccc2c1ccn2CC(=O)Nc1ccc(-c2cnccn2)cn1 [compound 4, 2-[4-(2-methylpyrazol-3-yl)pyrrolo[3,2-c]pyridin-1-yl]-N-(5-pyrazin-2-yl-2-pyridyl)acetamide]
Second: Cn1nccc1-c1ccnc2c1ccn2CC(=O)Nc1ccc(-c2cnccn2)cn1 [compound 31, 2-[4-(2-methylpyrazol-3-yl)pyrrolo[2,3-b]pyridin-1-yl]-N-(5-pyrazin-2-yl-2-pyridyl)acetamide]
The IC50 of the first is higher: 1 to 5 nM for the first, < 1 nM for the second. The second is the more potent here.

First: Cn1nccc1-c1ncnc2c1ccn2CC(=O)Nc1ccc(-c2cnccn2)cn1 [compound 18, 2-[4-(2-methylpyrazol-3-yl)pyrrolo[2,3-d]pyrimidin-7-yl]-N-(5-pyrazin-2-yl-2-pyridyl)acetamide]
Second: O=C(Cn1ccc2c(-c3ccnc(C(F)(F)F)c3)ncnc21)Nc1ccc(-c2cnccn2)cn1 [compound 21, N-(5-pyrazin-2-yl-2-pyridyl)-2-[4-[2-(trifluoromethyl)-4-pyridyl]pyrrolo[2,3-d]pyrimidin-7-yl]acetamide]
The IC50 of the first is higher: 1 to 5 nM for the first, < 1 nM for the second.

Compared with Cc1cc(-c2ncnc3c2cnn3CC(=O)Nc2ccc(-c3cnccn3)nc2)ccn1 [compound 14, 2-[4-(2-methyl-4-pyridyl)pyrazolo[3,4-d]pyrimidin-1-yl]-N-(6-pyrazin-2-yl-3-pyridyl)acetamide], Cc1cc(-c2ncnc3c2cc(C)n3CC(=O)Nc2ccc(-c3cnccn3)cn2)ccn1 [compound 13, 2-[6-methyl-4-(2-methyl-4-pyridyl)pyrrolo[2,3-d]pyrimidin-7-yl]-N-(5-pyrazin-2-yl-2-pyridyl)acetamide] is higher in IC50: 1 to 5 nM for the first, > 5 nM for the second.

With Cc1cc(-c2nccc3c2ccn3CC(=O)Nc2ccc(-c3cnccn3)cn2)ccn1 [compound 23, 2-[4-(2-methyl-4-pyridyl)pyrrolo[3,2-c]pyridin-1-yl]-N-(5-pyrazin-2-yl-2-pyridyl)acetamide] the IC50 was < 1 nM.

same assay, conditions: Mus musculus, luciferase signal reduced to 50% of DMSO control; specific values

Point of comparison: Cc1cc(-c2nccc3c2ccn3CC(=O)Nc2ccc(-c3cnccn3)cn2)ccn1 [compound 23, 2-[4-(2-methyl-4-pyridyl)pyrrolo[3,2-c]pyridin-1-yl]-N-(5-pyrazin-2-yl-2-pyridyl)acetamide], IC50 0.43 nM. Against it:
- Cn1nccc1-c1ccnc2c1ccn2CC(=O)Nc1ccc(-c2cnccn2)cn1 [compound 31, 2-[4-(2-methylpyrazol-3-yl)pyrrolo[2,3-b]pyridin-1-yl]-N-(5-pyrazin-2-yl-2-pyridyl)acetamide] — 2.1-fold higher, 0.89 nM

same assay, conditions: luciferase signal reduced to 50% of DMSO control; category symbols

Cn1nccc1-c1ccnc2c1cnn2CC(=O)Nc1ccc(-c2cnccn2)cn1 [compound 6, 2-[4-(2-methylpyrazol-3-yl)pyrazolo[3,4-b]pyridin-1-yl]-N-(5-pyrazin-2-yl-2-pyridyl)acetamide] and CC1CN(c2ccnc3c2ccn3CC(=O)Nc2ccc(-c3cnccn3)cn2)CC(C)N1 (stereo not shown) [compound 29, 2-[4-(3,5-dimethylpiperazin-1-yl)pyrrolo[2,3-b]pyridin-1-yl]-N-(5-pyrazin-2-yl-2-pyridyl)acetamide] cannot be ordered by IC50: > 5 nM for the first, > 5 nM for the second.

First: Cc1cc(-c2ccnc3c2ccn3CC(=O)Nc2ccc(-c3cnccn3)nc2)ccn1 [compound 17, 2-[4-(2-methyl-4-pyridyl)pyrrolo[2,3-b]pyridin-1-yl]-N-(6-pyrazin-2-yl-3-pyridyl)acetamide]
Second: 2-[6-methyl-4-(2-methyl-4-pyridyl)pyrrolo[2,3-d]pyrimidin-7-yl]-N-(5-pyrazin-2-yl-2-pyridyl)acetamide [ID No. 13]
The IC50 of the first is higher: 1 to 5 nM for the first, < 1 nM for the second. The second is the more potent here.

CN1CCN(c2ccnc3c2ccn3CC(=O)Nc2ccc(-c3cnccn3)cn2)CC1 [compound 28, 2-[4-(4-methylpiperazin-1-yl)pyrrolo[2,3-b]pyridin-1-yl]-N-(5-pyrazin-2-yl-2-pyridyl)acetamide] and Cc1cc(-c2ncnc3c2ncn3CC(=O)Nc2ccc(-c3cnccn3)cn2)ccn1 [compound 19, 2-[6-(2-methyl-4-pyridyl)purin-9-yl]-N-(5-pyrazin-2-yl-2-pyridyl)acetamide] cannot be ordered by IC50: > 5 nM for the first, > 5 nM for the second.

“2-[4-(2-methyl-4-pyridyl)pyrazolo[3,4-b]pyridin-1-yl]-N-(6-pyrazin-2-yl-3-pyridyl)acetamide [compound 15]” and “2-[4-(2-methyl-4-pyridyl)imidazo[4,5-c]pyridin-1-yl]-N-(5-pyrazin-2-yl-2-pyridyl)acetamide [compound 20]” fall in the same range of IC50: 1 to 5 nM for the first, 1 to 5 nM for the second.

“2-[5-methyl-4-(2-methyl-4-pyridyl)pyrrolo[2,3-b]pyridin-1-yl]-N-(5-pyrazin-2-yl-2-pyridyl)acetamide [ID No. 1]” and Cc1cc(-c2ncnc3c2cnn3CC(=O)Nc2ccc(-c3cnccn3)cn2)ccn1 [compound 22, 2-[4-(2-methyl-4-pyridyl)pyrazolo[3,4-d]pyrimidin-1-yl]-N-(5-pyrazin-2-yl-2-pyridyl)acetamide] cannot be ordered by IC50: < 1 nM for the first, < 1 nM for the second.

same assay, conditions: luciferase signal reduced to 50% of DMSO control; specific values

“2-[5-methyl-4-(2-methyl-4-pyridyl)pyrrolo[2,3-b]pyridin-1-yl]-N-(5-pyrazin-2-yl-2-pyridyl)acetamide [ID No. 1]” gave an IC50 of 0.32 nM.
